According to ChEMBL document CHEMBL1125622 (J Med Chem, 1991):

What was measured:
[1] = target: T1, Dopamine beta-hydroxylase (Bos taurus) (UniProt P15101); experiment: Kcat/Km value of the compound; parameters: unit not given here
T1 sequence (whole entry): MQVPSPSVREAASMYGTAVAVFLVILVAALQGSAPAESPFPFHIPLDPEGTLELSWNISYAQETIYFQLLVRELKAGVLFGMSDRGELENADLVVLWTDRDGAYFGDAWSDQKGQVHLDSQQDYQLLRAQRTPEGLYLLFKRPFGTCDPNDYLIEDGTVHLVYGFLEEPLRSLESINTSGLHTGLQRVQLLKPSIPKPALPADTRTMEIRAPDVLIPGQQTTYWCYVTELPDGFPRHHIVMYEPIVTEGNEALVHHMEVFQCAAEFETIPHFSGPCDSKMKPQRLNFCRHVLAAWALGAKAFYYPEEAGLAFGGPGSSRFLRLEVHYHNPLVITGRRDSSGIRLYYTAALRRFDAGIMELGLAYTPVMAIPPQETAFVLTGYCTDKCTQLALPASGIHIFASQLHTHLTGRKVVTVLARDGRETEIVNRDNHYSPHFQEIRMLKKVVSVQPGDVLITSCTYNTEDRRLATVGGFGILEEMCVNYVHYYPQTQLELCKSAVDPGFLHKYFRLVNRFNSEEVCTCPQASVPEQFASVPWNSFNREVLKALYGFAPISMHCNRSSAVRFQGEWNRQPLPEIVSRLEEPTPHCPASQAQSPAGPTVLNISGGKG

[2] = target: T1, Dopamine beta-hydroxylase (Bos taurus); experiment: Kinetic parameter kcat was measured for dopamine beta-monooxygenase
[3] = species on record: Rattus norvegicus; experiment: The ability to inhibit dopamine uptake was measured in rat brain striatal synaptosomes; assay type: functional
[4] = substrate: C[C@@H](N)CSc1ccccc1; experiment: (§1) Kinetic parameter Km was measured for dopamine beta-monooxygenase
[5] = substrate: C[C@H](N)CSc1ccccc1; experiment: as §1

**Q.** How did the Ratio [1] turn out when `NCCCc1ccccc1` was run?
**A.** 800

**Q.** What about the k cat [2] of the same molecule?
**A.** 17 s⁻¹

**Q.** Which results are given for `C[C@@H](N)CSc1ccccc1`?
**A.** Ratio [1]: 700; k cat [2]: 13 s⁻¹

**Q.** Which results are given for `NCCc1ccc(O)cc1`?
**A.** Ratio [1]: 60000; k cat [2]: 121 s⁻¹

**Q.** What does the source list for `C[C@H](N)CSc1ccccc1`?
**A.** Ratio [1]: 4800; k cat [2]: 37 s⁻¹; IC50 [3]: 6.5 µM

B1: Dopamine beta-hydroxylase (Bos taurus), P15101 (protein)
chain: MQVPSPSVREAASMYGTAVAVFLVILVAALQGSAPAESPFPFHIPLDPEGTLELSWNISYAQETIYFQLLVRELKAGVLFGMSDRGELENADLVVLWTDRDGAYFGDAWSDQKGQVHLDSQQDYQLLRAQRTPEGLYLLFKRPFGTCDPNDYLIEDGTVHLVYGFLEEPLRSLESINTSGLHTGLQRVQLLKPSIPKPALPADTRTMEIRAPDVLIPGQQTTYWCYVTELPDGFPRHHIVMYEPIVTEGNEALVHHMEVFQCAAEFETIPHFSGPCDSKMKPQRLNFCRHVLAAWALGAKAFYYPEEAGLAFGGPGSSRFLRLEVHYHNPLVITGRRDSSGIRLYYTAALRRFDAGIMELGLAYTPVMAIPPQETAFVLTGYCTDKCTQLALPASGIHIFASQLHTHLTGRKVVTVLARDGRETEIVNRDNHYSPHFQEIRMLKKVVSVQPGDVLITSCTYNTEDRRLATVGGFGILEEMCVNYVHYYPQTQLELCKSAVDPGFLHKYFRLVNRFNSEEVCTCPQASVPEQFASVPWNSFNREVLKALYGFAPISMHCNRSSAVRFQGEWNRQPLPEIVSRLEEPTPHCPASQAQSPAGPTVLNISGGKG
**Q.** B1 was tested. Which Km [4] did it give?
**A.** 19 mM

**Q.** What about the Km [5] of the same molecule?
**A.** 7.7 mM
